Literature values as cited in patent US11670410B1, “Systems and methods to automatically administer a psychoactive substance to an airway of a user based on a detected event or condition” (priority 2022, dated 2023).

Experiments:
[1] = galantamine consumed orally
[2] = nose-to-brain device, protocol dose 1 mg
[3] = @ 5 min., protocol dose 1.0 mg
[4] = inhaled after vaporization; protocol dose 10 mcg/Kg

COc1ccc2c3c1O[C@H]1C[C@@H](O)C=C[C@@]31CCN(C)C2 [Galantamine, galantamine]
Tmax [1]: ~1.5 h
PK-Intranasal Tmax [2]: 0.5 to 0.75 h

CC[C@H](C)[C@@H]1NC(=O)[C@H](Cc2ccc(O)cc2)NC(=O)[C@@H](N)CSSC[C@@H](C(=O)N2CCC[C@H]2C(=O)N[C@@H](CC(C)C)C(=O)NCC(N)=O)NC(=O)[C@H](CC(N)=O)NC(=O)[C@H](CCC(N)=O)NC1=O [Oxytocin, oxytocin]
PK-Intranasal olfactory bulb concentration [3]: > 0 @ 5 min.

COC(=O)[C@@H]1C[C@H](OC(C)=O)C(=O)[C@H]2[C@@]1(C)CC[C@H]1C(=O)O[C@H](c3ccoc3)C[C@]21C [Salvinorin A, salvinorin A]
PK-Inhaled Tmax [4]: Tmax = 2 min.
